What was measured:
[1] = target: Centromere-associated protein E (Homo sapiens) (UniProt Q02224); assay: Inhibition of CENPE at 10 uM by puruvate kinsase-lactate dehydrogenase detection system
[2] = target: T1, Chromosome-associated kinesin KIF4A (Homo sapiens) (UniProt O95239); assay: Inhibition of Kif4 at 10 uM by puruvate kinsase-lactate dehydrogenase detection system
T1 sequence (whole entry): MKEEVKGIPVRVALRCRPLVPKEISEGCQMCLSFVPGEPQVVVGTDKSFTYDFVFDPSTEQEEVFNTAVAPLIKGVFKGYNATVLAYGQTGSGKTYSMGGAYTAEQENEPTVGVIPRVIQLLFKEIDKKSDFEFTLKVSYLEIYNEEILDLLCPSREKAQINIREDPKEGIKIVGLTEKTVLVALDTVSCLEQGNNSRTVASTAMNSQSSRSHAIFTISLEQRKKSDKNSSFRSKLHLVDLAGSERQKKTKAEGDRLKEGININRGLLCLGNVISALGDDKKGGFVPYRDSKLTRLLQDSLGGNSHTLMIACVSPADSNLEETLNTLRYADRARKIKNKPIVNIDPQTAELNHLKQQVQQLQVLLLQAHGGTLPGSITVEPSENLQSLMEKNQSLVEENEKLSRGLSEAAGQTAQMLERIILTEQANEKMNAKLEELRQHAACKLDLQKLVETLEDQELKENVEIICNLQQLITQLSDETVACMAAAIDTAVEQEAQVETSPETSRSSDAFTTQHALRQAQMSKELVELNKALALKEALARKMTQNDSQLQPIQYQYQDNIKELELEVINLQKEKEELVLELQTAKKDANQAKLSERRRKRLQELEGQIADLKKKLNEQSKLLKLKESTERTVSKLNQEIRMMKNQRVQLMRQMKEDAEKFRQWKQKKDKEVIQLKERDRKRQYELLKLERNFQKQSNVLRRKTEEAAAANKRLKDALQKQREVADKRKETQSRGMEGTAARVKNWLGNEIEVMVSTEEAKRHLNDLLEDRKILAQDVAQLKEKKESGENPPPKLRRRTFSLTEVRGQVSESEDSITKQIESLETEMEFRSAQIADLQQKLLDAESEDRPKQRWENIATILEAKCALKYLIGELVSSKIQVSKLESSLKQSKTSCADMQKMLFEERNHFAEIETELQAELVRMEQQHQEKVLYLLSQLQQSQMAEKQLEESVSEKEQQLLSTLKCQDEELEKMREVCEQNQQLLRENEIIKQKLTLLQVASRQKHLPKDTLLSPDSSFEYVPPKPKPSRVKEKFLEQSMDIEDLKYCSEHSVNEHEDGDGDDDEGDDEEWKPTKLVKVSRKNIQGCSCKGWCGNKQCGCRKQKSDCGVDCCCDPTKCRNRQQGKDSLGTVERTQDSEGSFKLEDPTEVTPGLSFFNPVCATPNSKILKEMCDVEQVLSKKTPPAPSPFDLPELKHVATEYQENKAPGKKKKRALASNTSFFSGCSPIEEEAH

[3] = target: T2, Kinesin-like protein KIFC1 (Homo sapiens) (UniProt Q9BW19); assay: Inhibition of HSET at 10 uM by puruvate kinsase-lactate dehydrogenase detection system
T2 sequence (whole entry): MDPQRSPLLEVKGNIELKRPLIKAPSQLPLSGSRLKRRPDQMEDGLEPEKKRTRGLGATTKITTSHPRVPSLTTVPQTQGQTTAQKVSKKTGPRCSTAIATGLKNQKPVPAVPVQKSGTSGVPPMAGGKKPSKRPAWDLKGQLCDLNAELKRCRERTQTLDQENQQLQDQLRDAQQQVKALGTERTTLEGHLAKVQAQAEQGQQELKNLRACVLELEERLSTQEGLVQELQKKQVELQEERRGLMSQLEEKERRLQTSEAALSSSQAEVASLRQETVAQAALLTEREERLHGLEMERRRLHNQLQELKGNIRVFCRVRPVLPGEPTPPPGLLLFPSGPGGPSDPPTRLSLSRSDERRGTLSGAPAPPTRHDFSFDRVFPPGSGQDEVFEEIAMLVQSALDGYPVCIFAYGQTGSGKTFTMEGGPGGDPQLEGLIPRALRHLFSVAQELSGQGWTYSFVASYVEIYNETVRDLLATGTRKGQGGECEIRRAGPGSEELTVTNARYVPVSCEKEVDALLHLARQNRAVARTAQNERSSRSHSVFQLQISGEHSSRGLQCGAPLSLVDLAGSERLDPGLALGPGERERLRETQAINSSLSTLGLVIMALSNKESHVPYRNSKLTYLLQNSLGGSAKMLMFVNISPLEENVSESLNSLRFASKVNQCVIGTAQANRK

[4] = target: T3, Kinesin-like protein KIF23 (Homo sapiens) (UniProt Q02241); assay: Inhibition of MKLP1 at 10 uM by puruvate kinsase-lactate dehydrogenase detection system
T3 sequence (whole entry): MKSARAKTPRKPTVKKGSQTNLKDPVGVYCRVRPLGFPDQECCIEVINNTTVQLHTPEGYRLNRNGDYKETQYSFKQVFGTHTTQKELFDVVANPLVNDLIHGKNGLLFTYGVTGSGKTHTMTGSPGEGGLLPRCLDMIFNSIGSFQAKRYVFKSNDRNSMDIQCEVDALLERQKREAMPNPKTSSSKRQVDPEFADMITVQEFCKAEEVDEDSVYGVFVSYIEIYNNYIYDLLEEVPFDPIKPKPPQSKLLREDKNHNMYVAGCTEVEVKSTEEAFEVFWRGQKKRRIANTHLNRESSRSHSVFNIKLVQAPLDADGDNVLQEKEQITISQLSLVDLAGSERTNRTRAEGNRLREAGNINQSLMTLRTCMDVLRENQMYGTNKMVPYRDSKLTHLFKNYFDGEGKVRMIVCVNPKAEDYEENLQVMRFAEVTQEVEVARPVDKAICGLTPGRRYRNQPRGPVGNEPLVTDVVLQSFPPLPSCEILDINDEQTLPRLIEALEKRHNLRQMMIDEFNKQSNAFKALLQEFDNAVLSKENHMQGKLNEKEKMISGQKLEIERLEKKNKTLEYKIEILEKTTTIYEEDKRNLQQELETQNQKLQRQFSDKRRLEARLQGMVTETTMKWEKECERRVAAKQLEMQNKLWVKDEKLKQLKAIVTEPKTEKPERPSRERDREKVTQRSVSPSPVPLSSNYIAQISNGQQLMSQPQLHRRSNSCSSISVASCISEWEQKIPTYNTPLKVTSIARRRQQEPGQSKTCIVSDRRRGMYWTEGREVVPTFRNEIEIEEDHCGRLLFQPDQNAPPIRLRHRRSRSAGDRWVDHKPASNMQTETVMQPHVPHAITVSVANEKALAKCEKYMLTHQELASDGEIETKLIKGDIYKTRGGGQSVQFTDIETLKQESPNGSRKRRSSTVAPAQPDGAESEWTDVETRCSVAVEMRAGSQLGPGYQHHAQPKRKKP

[5] = target: Kinesin-like protein KIF1A (Homo sapiens) (UniProt Q12756); assay: Inhibition of Kif1A at 10 uM by puruvate kinsase-lactate dehydrogenase detection system
Chain of Kinesin-like protein KIF1A (Homo sapiens) (Q12756 whole entry): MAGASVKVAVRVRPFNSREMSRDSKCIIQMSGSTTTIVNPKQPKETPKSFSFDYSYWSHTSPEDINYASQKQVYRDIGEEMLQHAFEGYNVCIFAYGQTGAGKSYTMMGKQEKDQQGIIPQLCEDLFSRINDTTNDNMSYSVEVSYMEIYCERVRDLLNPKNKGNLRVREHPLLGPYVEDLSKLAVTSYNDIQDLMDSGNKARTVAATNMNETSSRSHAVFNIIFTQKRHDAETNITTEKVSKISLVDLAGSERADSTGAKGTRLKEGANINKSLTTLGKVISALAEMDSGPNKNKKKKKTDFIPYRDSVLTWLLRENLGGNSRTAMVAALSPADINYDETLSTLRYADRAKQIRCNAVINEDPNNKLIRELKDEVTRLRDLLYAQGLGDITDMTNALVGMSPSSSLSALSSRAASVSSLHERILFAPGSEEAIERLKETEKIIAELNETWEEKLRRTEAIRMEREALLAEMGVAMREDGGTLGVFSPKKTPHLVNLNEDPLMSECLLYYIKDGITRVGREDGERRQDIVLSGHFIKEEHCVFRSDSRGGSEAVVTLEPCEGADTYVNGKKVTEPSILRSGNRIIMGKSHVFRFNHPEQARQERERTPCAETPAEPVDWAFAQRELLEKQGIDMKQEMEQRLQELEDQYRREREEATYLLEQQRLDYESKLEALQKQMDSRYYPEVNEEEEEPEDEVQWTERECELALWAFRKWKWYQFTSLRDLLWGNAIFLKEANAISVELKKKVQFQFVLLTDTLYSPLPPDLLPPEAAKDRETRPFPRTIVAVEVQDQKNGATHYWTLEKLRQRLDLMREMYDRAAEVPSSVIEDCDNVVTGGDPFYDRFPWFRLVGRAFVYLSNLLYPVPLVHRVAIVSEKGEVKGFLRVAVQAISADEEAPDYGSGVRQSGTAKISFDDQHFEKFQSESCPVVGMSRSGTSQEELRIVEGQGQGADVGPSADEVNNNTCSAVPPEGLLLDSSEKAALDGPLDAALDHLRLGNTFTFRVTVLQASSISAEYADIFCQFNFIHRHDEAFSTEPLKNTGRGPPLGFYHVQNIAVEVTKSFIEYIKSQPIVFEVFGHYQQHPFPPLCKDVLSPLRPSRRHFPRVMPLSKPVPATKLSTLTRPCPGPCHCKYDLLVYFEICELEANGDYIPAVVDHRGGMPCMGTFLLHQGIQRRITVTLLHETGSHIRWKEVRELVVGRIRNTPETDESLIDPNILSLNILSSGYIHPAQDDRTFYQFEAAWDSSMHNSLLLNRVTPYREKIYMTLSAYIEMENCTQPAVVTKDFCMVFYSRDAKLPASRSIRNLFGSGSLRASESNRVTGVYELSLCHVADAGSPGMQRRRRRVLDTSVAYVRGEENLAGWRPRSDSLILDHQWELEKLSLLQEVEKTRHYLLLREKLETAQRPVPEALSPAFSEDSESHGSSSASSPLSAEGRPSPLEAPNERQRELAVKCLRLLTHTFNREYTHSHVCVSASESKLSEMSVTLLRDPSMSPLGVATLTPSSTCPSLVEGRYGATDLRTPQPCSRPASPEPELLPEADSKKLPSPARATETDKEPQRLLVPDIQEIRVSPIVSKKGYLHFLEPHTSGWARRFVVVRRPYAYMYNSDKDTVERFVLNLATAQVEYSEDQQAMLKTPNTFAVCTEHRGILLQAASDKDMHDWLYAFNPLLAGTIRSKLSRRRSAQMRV

Chain of Centromere-associated protein E (Homo sapiens) (Q02224 whole entry): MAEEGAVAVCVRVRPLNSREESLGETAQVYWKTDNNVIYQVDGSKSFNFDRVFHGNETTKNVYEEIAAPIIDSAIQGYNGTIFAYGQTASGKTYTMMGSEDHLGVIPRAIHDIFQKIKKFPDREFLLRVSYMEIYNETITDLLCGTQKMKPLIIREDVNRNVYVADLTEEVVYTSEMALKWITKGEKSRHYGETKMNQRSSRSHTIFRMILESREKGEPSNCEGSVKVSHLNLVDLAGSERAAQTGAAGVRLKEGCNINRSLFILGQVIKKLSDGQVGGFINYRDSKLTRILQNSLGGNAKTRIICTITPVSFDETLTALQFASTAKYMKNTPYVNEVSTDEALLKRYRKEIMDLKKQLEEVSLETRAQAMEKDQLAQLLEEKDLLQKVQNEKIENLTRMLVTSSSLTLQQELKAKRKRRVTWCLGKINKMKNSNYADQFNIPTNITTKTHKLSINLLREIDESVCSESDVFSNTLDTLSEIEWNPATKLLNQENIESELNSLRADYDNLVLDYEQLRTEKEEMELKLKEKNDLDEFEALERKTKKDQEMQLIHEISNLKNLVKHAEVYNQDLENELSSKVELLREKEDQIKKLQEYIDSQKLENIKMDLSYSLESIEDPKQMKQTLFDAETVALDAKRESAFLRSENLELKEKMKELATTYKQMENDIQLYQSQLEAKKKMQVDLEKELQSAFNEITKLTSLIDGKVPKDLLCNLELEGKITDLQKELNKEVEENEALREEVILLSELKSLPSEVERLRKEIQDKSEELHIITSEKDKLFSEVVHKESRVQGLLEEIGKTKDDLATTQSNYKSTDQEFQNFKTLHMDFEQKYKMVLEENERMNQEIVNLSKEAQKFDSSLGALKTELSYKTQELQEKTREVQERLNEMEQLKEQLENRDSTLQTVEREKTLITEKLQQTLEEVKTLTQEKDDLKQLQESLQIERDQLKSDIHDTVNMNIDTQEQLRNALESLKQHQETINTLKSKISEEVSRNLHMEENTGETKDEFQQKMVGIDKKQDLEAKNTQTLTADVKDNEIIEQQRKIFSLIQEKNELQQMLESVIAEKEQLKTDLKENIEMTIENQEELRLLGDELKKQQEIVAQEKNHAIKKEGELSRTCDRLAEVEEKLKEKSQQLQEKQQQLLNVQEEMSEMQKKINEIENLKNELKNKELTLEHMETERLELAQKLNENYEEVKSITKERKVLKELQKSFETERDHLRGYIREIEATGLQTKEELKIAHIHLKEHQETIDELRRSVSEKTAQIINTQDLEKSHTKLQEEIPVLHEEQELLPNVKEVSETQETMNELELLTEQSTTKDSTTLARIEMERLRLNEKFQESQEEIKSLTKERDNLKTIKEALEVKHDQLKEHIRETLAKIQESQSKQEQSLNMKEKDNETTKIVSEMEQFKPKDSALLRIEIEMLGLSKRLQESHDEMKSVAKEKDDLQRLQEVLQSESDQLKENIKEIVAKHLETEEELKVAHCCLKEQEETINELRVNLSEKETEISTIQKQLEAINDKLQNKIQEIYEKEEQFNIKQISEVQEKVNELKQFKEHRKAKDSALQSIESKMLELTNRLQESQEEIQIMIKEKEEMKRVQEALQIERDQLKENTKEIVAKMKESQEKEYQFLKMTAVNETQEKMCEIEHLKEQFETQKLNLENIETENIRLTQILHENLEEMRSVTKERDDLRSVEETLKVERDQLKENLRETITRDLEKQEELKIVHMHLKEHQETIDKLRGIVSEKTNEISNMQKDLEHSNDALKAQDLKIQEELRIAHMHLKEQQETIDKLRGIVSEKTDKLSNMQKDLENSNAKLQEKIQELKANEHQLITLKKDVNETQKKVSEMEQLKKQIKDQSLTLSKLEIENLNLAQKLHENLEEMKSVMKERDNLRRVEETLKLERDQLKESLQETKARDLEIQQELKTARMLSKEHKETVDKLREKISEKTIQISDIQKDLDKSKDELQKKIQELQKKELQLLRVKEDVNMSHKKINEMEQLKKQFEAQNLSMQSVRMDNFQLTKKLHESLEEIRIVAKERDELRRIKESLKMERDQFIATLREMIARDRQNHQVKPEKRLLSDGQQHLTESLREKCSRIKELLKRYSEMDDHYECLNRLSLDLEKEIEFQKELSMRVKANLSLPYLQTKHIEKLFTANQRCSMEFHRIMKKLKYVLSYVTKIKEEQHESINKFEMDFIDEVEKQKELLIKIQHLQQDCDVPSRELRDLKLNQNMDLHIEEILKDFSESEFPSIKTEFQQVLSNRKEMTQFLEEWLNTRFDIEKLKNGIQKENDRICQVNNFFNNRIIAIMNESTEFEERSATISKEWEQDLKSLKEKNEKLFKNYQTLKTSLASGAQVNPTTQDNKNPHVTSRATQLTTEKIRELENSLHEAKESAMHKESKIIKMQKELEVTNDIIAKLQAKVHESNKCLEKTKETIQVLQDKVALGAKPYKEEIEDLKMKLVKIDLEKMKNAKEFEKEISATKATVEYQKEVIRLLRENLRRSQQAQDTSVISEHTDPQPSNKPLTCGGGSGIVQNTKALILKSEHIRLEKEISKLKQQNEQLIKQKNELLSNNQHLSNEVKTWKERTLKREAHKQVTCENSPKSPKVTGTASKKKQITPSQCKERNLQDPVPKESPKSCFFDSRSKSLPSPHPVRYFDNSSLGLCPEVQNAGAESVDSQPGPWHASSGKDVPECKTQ

inhibition [1] [%] | inhibition [2] [%] | inhibition [3] [%] | inhibition [4] [%] | inhibition [5] [%] | Structure (SMILES)
11 | 8.2 | 2.6 | 9.4 | 12.8 | NC(=O)Nc1ccc(-c2ccc(C(F)(F)F)cc2)cc1F
9 | 6.5 | 4.1 | 7.7 | 8.9 | O=C1CCc2cc(-c3ccc(C(F)(F)F)cc3)ccc2N1
7 | 4.3 | 4.2 | 7.1 | 8.2 | Cc1ccc(C(=O)N(CCCN)[C@@H](c2nc3cc(Cl)ccc3c(=O)n2Cc2ccccc2)C(C)C)cc1

Reference: ChEMBL document CHEMBL1221208, “ATP-competitive inhibitors of the mitotic kinesin KSP that function via an allosteric mechanism” (Nat Chem Biol, 2007)
